In PubChem BioAssay (NCI) one finds TGI and GI50 data, which are given here for 20 molecules.

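Method: 48-hour compound exposure of cells in 96-well plates, five concentrations, linear interpolation of endpoints. GI50 = concentration required for 50% inhibition of growth. Definition used: TGI = concentration required for complete inhibition of growth.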 Bounds are passed on as bounds.

Some test systems named below: RPMI-8226 leukemia; ACHN renal; SK-MEL-5 melanoma; HCC-2998 colon; NCI-H23 lung; EKVX NSCLC; UACC-62 melanoma; HCT-116 colon; SW-620 colon; BT-549 breast.
What all share (experiment): NCI tumour cell line growth inhibition, 48 h

In the case of `O=C(Oc1ccc(Cl)cc1[N+](=O)[O-])c1ccccc1`, the TGI was above 100 µM in the assay with RPMI-8226 leukemia; above 100 µM with ACHN renal; 36.7 µM in the assay on SK-MEL-5 melanoma; above 100 µM in the assay on HCC-2998 colon; above 100 µM with NCI-H23 lung; above 100 µM in the assay on EKVX NSCLC. The TGI in the assay on UACC-62 melanoma, in the assay with HCT-116 colon and in the assay on SW-620 colon was above 100 µM throughout.

Regarding `COc1cc(/C=C/C(=O)CC(=O)/C=C/c2ccc(O)c(OC)c2)ccc1O`, the TGI in the assay with RPMI-8226 leukemia turned out to be 6.28 µM; in the assay with ACHN renal, 28.9 µM; with SK-MEL-5 melanoma, 22.5 µM; in the assay on HCC-2998 colon it was 8.08 µM; in the assay with BT-549 breast, 13.7 µM; in the assay on NCI-H23 lung it was 31.8 µM. Moreover, the TGI with EKVX NSCLC amounted to […]; with UACC-62 melanoma it was 20.6 µM; in the assay on HCT-116 colon, 9.36 µM; with SW-620 colon, 21.2 µM.

Consider `C=C1C(=O)OC2CC1CCC1(C)OC1CCC(C)=CCCC2(C)O` (stereo unspecified), for which the TGI with RPMI-8226 leukemia is 7.18 µM; in the assay on SK-MEL-5 melanoma it was 10.2 µM; with HCC-2998 colon, 15.2 µM; with NCI-H23 lung it was 7.25 µM; in the assay on EKVX NSCLC it was 13.9 µM; in the assay on UACC-62 melanoma, 10 µM. In addition, the TGI is 8.7 µM with HCT-116 colon and 3.82 µM in the assay with SW-620 colon.

Take `C=CCNS(=O)(=O)c1ncnc2nc[nH]c12`: the TGI in the assay with RPMI-8226 leukemia, in the assay on ACHN renal, in the assay on SK-MEL-5 melanoma, in the assay on BT-549 breast, in the assay on NCI-H23 lung and with EKVX NSCLC was above 100 µM throughout. Also, the TGI in the assay with UACC-62 melanoma, in the assay on HCT-116 colon and in the assay on SW-620 colon was above 100 µM in each case.

As for `C=CCSSCC=C`, the TGI in the assay on RPMI-8226 leukemia is above 80.4 µM; in the assay with ACHN renal it was above 100 µM; in the assay on SK-MEL-5 melanoma, above 100 µM; with HCC-2998 colon, above 100 µM; with BT-549 breast it was above 81.5 µM; with NCI-H23 lung it was above 95.9 µM. For the same molecule, the TGI with EKVX NSCLC, in the assay with UACC-62 melanoma, in the assay on HCT-116 colon and in the assay with SW-620 colon was above 100 µM in each case.

Take `Br/C(=N\Nc1nn[nH]n1)c1ccncc1`: the TGI in the assay with RPMI-8226 leukemia, in the assay on ACHN renal, in the assay with SK-MEL-5 melanoma, in the assay with BT-549 breast, with NCI-H23 lung and in the assay with EKVX NSCLC was above 100 µM in each case. In addition, the TGI with UACC-62 melanoma, in the assay on HCT-116 colon and in the assay with SW-620 colon was above 100 µM each time.

Consider `CC(=O)NNC(=O)C1CCCCN1` (stereo unspecified), for which the TGI in the assay on RPMI-8226 leukemia, with ACHN renal, in the assay on SK-MEL-5 melanoma, in the assay on BT-549 breast, in the assay with NCI-H23 lung and in the assay on EKVX NSCLC was above 100 µM each time. The TGI in the assay on HCT-116 colon and with SW-620 colon was above 100 µM in each case.

Take `COc1ccc(NC(=S)N/N=C(\C)c2nc3ncccc3[nH]2)cc1`: the TGI in the assay with RPMI-8226 leukemia was above 100 µM; in the assay on ACHN renal, above 100 µM; with SK-MEL-5 melanoma, 29.1 µM; in the assay on HCC-2998 colon it was above 100 µM; with BT-549 breast, 42.3 µM; in the assay with NCI-H23 lung, above 100 µM. Moreover, the TGI in the assay with EKVX NSCLC was above 100 µM; in the assay on UACC-62 melanoma, 73.2 µM; in the assay with HCT-116 colon it was 24.8 µM; with SW-620 colon it was above 100 µM.

For `CN1CC(CNC(=O)OCc2ccccc2)CC2c3cccc4c3c(cn4C)CC21` (stereo unspecified), the GI50 is 2.14 µM in the assay on RPMI-8226 leukemia; 2.29 µM in the assay with ACHN renal; 1.49 µM in the assay on SK-MEL-5 melanoma; 1.67 µM in the assay on HCC-2998 colon; 2.07 µM in the assay with BT-549 breast; 2.61 µM in the assay with NCI-H23 lung. For the same molecule, the GI50 was 5.2 µM with EKVX NSCLC, 1.66 µM in the assay with UACC-62 melanoma, 1.72 µM with HCT-116 colon and 1.59 µM in the assay on SW-620 colon. In addition, the TGI with RPMI-8226 leukemia was 5.36 µM; with ACHN renal, 5.58 µM; in the assay with SK-MEL-5 melanoma it was 2.86 µM; in the assay on HCC-2998 colon it was 3.19 µM; in the assay on BT-549 breast, 4.62 µM; with NCI-H23 lung, 10.6 µM. The TGI came out at 21.3 µM in the assay with EKVX NSCLC, 3.17 µM in the assay with UACC-62 melanoma, 4.18 µM with HCT-116 colon and 3.12 µM in the assay with SW-620 colon.

In the case of `COc1c(OC/C=C(\C)CCC=C(C)C)ccc2ccc(=O)oc12`, the TGI with RPMI-8226 leukemia, in the assay with ACHN renal, in the assay with SK-MEL-5 melanoma, in the assay on HCC-2998 colon, in the assay with BT-549 breast and in the assay on NCI-H23 lung was above 100 µM throughout. In addition, the TGI in the assay with EKVX NSCLC, in the assay on UACC-62 melanoma, in the assay with HCT-116 colon and with SW-620 colon was above 100 µM in each case.

On to `COc1ccc(OC)c(CC(C)N)c1` (stereo unspecified), for which the TGI with RPMI-8226 leukemia, with ACHN renal, in the assay with SK-MEL-5 melanoma, with HCC-2998 colon, with NCI-H23 lung and in the assay on EKVX NSCLC was above 100 µM in each case. In addition, the TGI in the assay on UACC-62 melanoma, with HCT-116 colon and in the assay on SW-620 colon was above 100 µM each time.

In the case of `O=C(/C=C/c1ccccc1)N1CCCCC1`, the TGI in the assay with RPMI-8226 leukemia, in the assay on ACHN renal, in the assay on SK-MEL-5 melanoma, in the assay with HCC-2998 colon, in the assay on BT-549 breast and in the assay with NCI-H23 lung was above 100 µM throughout. For the same molecule, the TGI with EKVX NSCLC, in the assay with UACC-62 melanoma, in the assay with HCT-116 colon and with SW-620 colon was above 100 µM in each case.

Regarding `O=C1OCc2cc3cc4c(cc3c(-c3ccc5c(c3)OCO5)c21)OCO4` (tested in a mixture with another compound), the TGI was above 100 µM in the assay with RPMI-8226 leukemia; 33.6 µM with SK-MEL-5 melanoma; above 100 µM in the assay on HCC-2998 colon; above 100 µM in the assay on BT-549 breast; above 100 µM with NCI-H23 lung; 68 µM in the assay on UACC-62 melanoma. The values for the TGI in the assay on HCT-116 colon and in the assay on SW-620 colon were 13.7 µM and above 100 µM, respectively.

On to `Cn1c2c3ccc(Cl)cc3nc-2c(Cl)c2ccccc21`, for which the TGI with RPMI-8226 leukemia is above 100 µM; in the assay on ACHN renal it was 32 µM; in the assay with SK-MEL-5 melanoma it was 42.7 µM; with HCC-2998 colon, 20.5 µM; in the assay with BT-549 breast it was 50.1 µM; in the assay on NCI-H23 lung, 36.1 µM. Further, the TGI was 90.2 µM in the assay on EKVX NSCLC, 50.8 µM in the assay on UACC-62 melanoma, 4.99 µM with HCT-116 colon and 63.1 µM in the assay on SW-620 colon.

In the case of `O=C1OC2CC=CC1C2` (stereo unspecified), the TGI with RPMI-8226 leukemia, in the assay with SK-MEL-5 melanoma, with HCC-2998 colon, in the assay on NCI-H23 lung, in the assay on EKVX NSCLC and in the assay on UACC-62 melanoma was above 100 µM in each case. Further, the TGI in the assay with HCT-116 colon and in the assay with SW-620 colon was above 100 µM in each case.

On to `O=C(COc1ccc(Cl)c(Cl)c1)N(Cc1ccccc1)Cc1ccc[n+](Cc2ccc(Cl)cc2S(=O)(=O)F)c1`, for which the TGI is 28.4 µM in the assay with RPMI-8226 leukemia; above 100 µM in the assay on ACHN renal; 64.7 µM in the assay on SK-MEL-5 melanoma; above 100 µM in the assay on NCI-H23 lung; above 100 µM in the assay with UACC-62 melanoma; above 100 µM with HCT-116 colon. Further, in the assay on SW-620 colon, the TGI is above 100 µM.

Turning to `O=C1CCCC2C3CC(CN12)C1CCCCN1C3` (stereo unspecified), the TGI in the assay with RPMI-8226 leukemia, in the assay on ACHN renal, in the assay with SK-MEL-5 melanoma, in the assay with HCC-2998 colon, in the assay with BT-549 breast and in the assay with NCI-H23 lung was above 100 µM throughout. For the same molecule, the TGI with EKVX NSCLC, in the assay on UACC-62 melanoma, with HCT-116 colon and with SW-620 colon was above 100 µM throughout.

Take `CCCC(=O)O.CCCC(=O)O.CCCC(=O)O.CCCC(=O)O.[Rh].[Rh]`: the GI50 was 0.0243 µM with RPMI-8226 leukemia; 0.0451 µM in the assay on ACHN renal; 0.107 µM with SK-MEL-5 melanoma; 0.0314 µM in the assay with BT-549 breast; 0.168 µM with EKVX NSCLC; 0.0343 µM in the assay with UACC-62 melanoma. Further, the GI50 in the assay with HCT-116 colon was 0.0198 µM; in the assay with SW-620 colon, 0.0188 µM. Also, the TGI in the assay with RPMI-8226 leukemia amounted to 0.112 µM; in the assay with ACHN renal, 0.212 µM; in the assay on SK-MEL-5 melanoma it was 0.248 µM; with BT-549 breast, 0.101 µM; with EKVX NSCLC, 0.943 µM; in the assay with UACC-62 melanoma, 0.142 µM. The TGI with HCT-116 colon came out at 0.0433 µM; in the assay with SW-620 colon it was 0.0405 µM.

On to `Cl/C(=C\C=Nc1ccc(I)cc1)c1ccc2ccccc2c1`, for which the TGI in the assay on RPMI-8226 leukemia was found to be 56.5 µM; with ACHN renal it was 29.9 µM; in the assay with SK-MEL-5 melanoma it was 38.7 µM; in the assay with HCC-2998 colon it was 17.8 µM; in the assay on BT-549 breast, 47 µM; in the assay on NCI-H23 lung, 31 µM. The TGI was above 100 µM in the assay with EKVX NSCLC, 34.3 µM in the assay with UACC-62 melanoma, 33.2 µM with HCT-116 colon and 68.6 µM with SW-620 colon.

For `c1ccc(C[N+]23CN4CN(CN(C4)C2)C3)cc1`, the TGI is 57.2 µM in the assay on RPMI-8226 leukemia; 87.9 µM with ACHN renal; 50 µM in the assay on SK-MEL-5 melanoma; 39.9 µM in the assay on HCC-2998 colon; above 100 µM in the assay with BT-549 breast; 36.6 µM in the assay with NCI-H23 lung. For the same molecule, the TGI with EKVX NSCLC was above 100 µM; in the assay on UACC-62 melanoma, 32.1 µM; with HCT-116 colon, 85.3 µM; in the assay with SW-620 colon, 69.5 µM.
